Results on 15 molecules are retold here after ChEMBL document CHEMBL3763139, “Design, synthesis and biological evaluation of novel donepezil-coumarin hybrids as multi-target agents for the treatment of Alzheimer's disease” (Bioorg Med Chem, 2016).

As a reminder, the Papp is the rate of passage across a membrane or cell layer, normalised by area and donor concentration. As usually defined, the IC50 is the concentration that inhibits the measured activity by half.

For one data set, the species on record is Homo sapiens. Briefly: Selectivity index, ratio of IC50 for human recombinant MAO-A to IC50 for human recombinant MAO-B.
The nature of a further data set: in vitro. The note with it: PAMPA, pH 7.4.
Data set [1] deals with T1, Amine oxidase [flavin-containing] A (Homo sapiens, UniProt P21397).
T1 sequence (P21397 whole entry): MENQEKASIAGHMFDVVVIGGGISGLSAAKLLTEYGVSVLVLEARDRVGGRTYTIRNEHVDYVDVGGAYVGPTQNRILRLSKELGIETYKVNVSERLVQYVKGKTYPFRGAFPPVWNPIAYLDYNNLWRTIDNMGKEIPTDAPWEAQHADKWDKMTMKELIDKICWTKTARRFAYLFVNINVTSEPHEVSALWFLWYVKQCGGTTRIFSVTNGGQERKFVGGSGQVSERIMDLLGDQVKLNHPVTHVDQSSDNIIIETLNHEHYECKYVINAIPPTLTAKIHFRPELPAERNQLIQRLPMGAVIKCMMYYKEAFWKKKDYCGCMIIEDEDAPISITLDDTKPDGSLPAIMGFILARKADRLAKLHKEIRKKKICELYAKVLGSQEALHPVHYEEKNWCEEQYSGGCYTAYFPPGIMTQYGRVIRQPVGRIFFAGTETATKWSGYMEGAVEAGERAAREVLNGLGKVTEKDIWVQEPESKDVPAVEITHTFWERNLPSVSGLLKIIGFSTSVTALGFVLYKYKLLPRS
Briefly: Inhibition of human recombinant MAO-A using p-tyramine substrate at 100 uM after 15 mins by fluorimetric analysis. Conditions: 0.25 h.

Data set [2] can be described thus: Hepatotoxicity against human HepG2 cells assessed as cell viability at 6.25 uM after 24 hrs by MTT assay. In kind it is toxicity, cell-based. Conditions: read-out: Activity. Background: Formazan colour is commonly taken as a measure of viable cells.
Data set [3] has as its target T2, Amine oxidase [flavin-containing] B (Homo sapiens, UniProt P27338).
T2 sequence (P27338 whole entry): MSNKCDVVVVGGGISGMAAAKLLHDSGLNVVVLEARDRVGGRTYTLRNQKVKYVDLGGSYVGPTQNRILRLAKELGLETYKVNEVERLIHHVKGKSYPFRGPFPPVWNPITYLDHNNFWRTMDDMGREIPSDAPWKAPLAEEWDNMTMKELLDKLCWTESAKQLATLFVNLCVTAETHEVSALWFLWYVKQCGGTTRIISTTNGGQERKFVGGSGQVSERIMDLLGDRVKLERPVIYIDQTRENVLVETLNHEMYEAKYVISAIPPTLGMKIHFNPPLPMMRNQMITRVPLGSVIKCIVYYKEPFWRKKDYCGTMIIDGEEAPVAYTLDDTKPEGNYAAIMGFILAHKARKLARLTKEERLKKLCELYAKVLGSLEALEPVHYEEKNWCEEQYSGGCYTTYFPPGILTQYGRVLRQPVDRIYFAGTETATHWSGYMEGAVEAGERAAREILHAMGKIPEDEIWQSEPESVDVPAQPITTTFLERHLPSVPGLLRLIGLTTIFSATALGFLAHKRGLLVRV
Description: Inhibition of human recombinant MAO-B using p-tyramine substrate after 15 mins by fluorimetric analysis

The nature of data set [4]: Hepatotoxicity against human HepG2 cells assessed as cell viability at 12.5 uM after 24 hrs by MTT assay. In kind it is toxicity, cell-based. The note with it: read-out: Activity.
Data set [5] has as its target Acetylcholinesterase (Electrophorus electricus, UniProt O42275).
Description: Inhibition of electric eel AChE using acetylthiocholine iodide as substrate preincubated for 6 mins followed by substrate addition measured up to 180 secs by spectrophotometric-based Ellman's method
For data set [6], the target named is Acetylcholinesterase (Homo sapiens, UniProt P22303).
Description: Inhibition of human erythrocyte AChE using acetylthiocholine iodide as substrate preincubated for 6 mins followed by substrate addition measured up to 180 secs by spectrophotometric-based Ellman's method
For data set [7], the target named is Cholinesterase (Homo sapiens, UniProt P06276).
Description: Inhibition of human serum BuChE using S-butyrylthiocholine iodide as substrate preincubated for 6 mins followed by substrate addition measured up to 180 secs by spectrophotometric-based Ellman's method
The target of data set [8] is T2, Amine oxidase [flavin-containing] B. Briefly: Competitive inhibition of human recombinant MAO-B using p-tyramine substrate at 1.5 to 6 uM after 15 mins by Lineweaver-Burk reciprocal plot analysis. The note with it: 0.25 h.
The target in data set [9] is Cholinesterase (Equus caballus, UniProt P81908).
Description: Inhibition of equine serum BuChE using S-butyrylthiocholine iodide as substrate preincubated for 6 mins followed by substrate addition measured up to 180 secs by spectrophotometric-based Ellman's method
A short description of data set [10]: Hepatotoxicity against human HepG2 cells assessed as cell viability at 50 uM after 24 hrs by MTT assay. The note with it: read-out: Activity. It counts as toxicity, cell-based.
The target of data set [11] is Cholinesterase (Equus caballus) (UniProt P81908). The note with it: 0.44 to 1.74 uM.
Data set [12] can be described thus: Cytotoxicity against human SH-SY5Y cells assessed as cell viability at 10 uM after 24 hrs by MTT assay. The note with it: read-out: Activity. It counts as cell-based.
The target of data set [13] is Acetylcholinesterase (Electrophorus electricus) (UniProt O42275). The data set is described as follows: Mixed type inhibition of electric eel AChE using acetylthiocholine iodide as substrate at 0.44 to 1.74 uM preincubated for 6 mins followed by substrate addition measured up to 180 secs by Lineweaver-Burk reciprocal plot analysis.
A short description of data set [14]: Hepatotoxicity against human HepG2 cells assessed as cell viability at 25 uM after 24 hrs by MTT assay. The note with it: read-out: Activity. It counts as toxicity, cell-based.
Data set [15] in a line: Cytotoxicity against human SH-SY5Y cells assessed as cell viability at 1 uM after 24 hrs by MTT assay. In kind it is cell-based. The note with it: read-out: Activity.
Data set [16] has as its target T2, Amine oxidase [flavin-containing] B. Briefly: Reversible inhibition of human recombinant MAO-B assessed as enzyme recovery using p-tyramine substrate at 100 times IC50 preincubated for 30 mins followed by 100 fold dilution by fluorimetric analysis relative to control. Details: scale not given: the % may be the effect or the level left.
The nature of data set [17]: Cytotoxicity against human SH-SY5Y cells assessed as cell viability at 5 uM after 24 hrs by MTT assay. It counts as cell-based. The note with it: read-out: Activity.
The nature of data set [18]: Cytotoxicity against human SH-SY5Y cells assessed as cell viability at 50 uM after 24 hrs by MTT assay. It counts as cell-based. The note with it: read-out: Activity.
Data set [19] in a line: Cytotoxicity against human SH-SY5Y cells assessed as cell viability at 25 uM after 24 hrs by MTT assay. The note with it: read-out: Activity. In kind it is cell-based.

Active and inactive are the calls of the source. The rule behind the calls is not given here.

Cholinesterase (Homo sapiens, UniProt P06276), sequence (P06276 whole entry): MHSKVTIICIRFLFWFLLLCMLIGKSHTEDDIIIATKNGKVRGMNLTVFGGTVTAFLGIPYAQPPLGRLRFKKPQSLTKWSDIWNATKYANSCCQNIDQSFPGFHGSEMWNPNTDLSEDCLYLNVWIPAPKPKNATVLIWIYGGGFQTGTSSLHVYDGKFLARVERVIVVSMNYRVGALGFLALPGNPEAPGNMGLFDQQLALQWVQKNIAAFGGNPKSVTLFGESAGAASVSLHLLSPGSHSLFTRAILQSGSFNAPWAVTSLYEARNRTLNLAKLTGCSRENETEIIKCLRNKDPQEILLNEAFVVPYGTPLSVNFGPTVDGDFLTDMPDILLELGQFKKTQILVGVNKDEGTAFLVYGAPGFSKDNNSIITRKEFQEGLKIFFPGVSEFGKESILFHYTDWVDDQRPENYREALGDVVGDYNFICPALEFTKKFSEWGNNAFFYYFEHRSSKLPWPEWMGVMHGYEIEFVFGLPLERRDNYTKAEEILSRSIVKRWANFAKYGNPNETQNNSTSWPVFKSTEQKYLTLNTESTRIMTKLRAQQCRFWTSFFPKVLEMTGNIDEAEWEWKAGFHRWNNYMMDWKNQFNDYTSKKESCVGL
Cholinesterase (Equus caballus, UniProt P81908), sequence (P81908 whole entry): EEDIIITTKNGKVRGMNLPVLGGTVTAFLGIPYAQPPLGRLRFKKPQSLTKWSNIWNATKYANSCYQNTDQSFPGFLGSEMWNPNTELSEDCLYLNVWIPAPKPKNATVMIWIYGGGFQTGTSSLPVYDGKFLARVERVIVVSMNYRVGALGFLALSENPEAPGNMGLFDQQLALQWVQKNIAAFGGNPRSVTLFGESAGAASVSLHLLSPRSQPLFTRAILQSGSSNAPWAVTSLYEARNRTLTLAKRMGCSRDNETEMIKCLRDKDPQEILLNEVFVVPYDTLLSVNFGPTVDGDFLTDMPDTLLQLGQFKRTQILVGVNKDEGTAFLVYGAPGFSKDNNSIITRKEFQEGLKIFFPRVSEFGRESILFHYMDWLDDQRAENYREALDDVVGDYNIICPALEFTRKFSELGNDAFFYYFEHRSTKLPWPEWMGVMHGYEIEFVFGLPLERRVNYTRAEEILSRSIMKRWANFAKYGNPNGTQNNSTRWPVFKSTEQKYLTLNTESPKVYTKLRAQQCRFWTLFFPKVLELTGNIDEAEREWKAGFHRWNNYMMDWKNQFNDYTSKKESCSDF
Acetylcholinesterase (Electrophorus electricus, UniProt O42275), sequence (O42275 whole entry): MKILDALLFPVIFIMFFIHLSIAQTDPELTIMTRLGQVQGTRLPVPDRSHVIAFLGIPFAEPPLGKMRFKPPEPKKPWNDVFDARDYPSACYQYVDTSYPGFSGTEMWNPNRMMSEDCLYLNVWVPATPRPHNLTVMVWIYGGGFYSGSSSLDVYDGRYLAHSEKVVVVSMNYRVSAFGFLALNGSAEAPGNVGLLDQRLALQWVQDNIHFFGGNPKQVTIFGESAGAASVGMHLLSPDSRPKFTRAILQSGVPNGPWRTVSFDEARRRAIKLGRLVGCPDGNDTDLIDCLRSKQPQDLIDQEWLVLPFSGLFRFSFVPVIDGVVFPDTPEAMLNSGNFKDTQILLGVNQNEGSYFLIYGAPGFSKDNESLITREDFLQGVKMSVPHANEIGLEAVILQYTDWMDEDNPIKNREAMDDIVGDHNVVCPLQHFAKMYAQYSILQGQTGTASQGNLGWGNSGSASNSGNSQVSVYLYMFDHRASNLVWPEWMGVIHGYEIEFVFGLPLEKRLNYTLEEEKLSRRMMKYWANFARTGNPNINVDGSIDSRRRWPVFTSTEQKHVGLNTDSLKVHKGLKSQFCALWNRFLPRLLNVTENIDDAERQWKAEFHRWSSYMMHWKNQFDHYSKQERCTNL
Acetylcholinesterase (Homo sapiens, UniProt P22303), sequence (P22303 whole entry): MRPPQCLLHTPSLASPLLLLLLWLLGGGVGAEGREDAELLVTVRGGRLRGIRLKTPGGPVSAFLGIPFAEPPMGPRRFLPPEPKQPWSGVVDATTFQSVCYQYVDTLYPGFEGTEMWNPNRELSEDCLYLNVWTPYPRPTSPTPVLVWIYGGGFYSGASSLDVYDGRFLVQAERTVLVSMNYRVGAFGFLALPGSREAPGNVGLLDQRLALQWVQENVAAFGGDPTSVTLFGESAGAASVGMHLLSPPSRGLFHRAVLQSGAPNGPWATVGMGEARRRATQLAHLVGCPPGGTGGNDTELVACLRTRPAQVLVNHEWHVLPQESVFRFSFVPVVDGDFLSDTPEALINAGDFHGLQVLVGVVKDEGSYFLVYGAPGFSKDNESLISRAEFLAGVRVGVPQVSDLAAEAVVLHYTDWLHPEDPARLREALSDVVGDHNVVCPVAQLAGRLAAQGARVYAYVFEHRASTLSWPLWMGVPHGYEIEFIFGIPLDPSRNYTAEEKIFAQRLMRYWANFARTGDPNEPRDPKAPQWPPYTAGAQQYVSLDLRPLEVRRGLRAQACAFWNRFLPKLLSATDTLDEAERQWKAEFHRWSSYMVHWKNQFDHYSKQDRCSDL
Cholinesterase (Equus caballus), sequence (P81908 whole entry): as the sequence (P81908 whole entry) above
Acetylcholinesterase (Electrophorus electricus), sequence (O42275 24-633 limits assumed): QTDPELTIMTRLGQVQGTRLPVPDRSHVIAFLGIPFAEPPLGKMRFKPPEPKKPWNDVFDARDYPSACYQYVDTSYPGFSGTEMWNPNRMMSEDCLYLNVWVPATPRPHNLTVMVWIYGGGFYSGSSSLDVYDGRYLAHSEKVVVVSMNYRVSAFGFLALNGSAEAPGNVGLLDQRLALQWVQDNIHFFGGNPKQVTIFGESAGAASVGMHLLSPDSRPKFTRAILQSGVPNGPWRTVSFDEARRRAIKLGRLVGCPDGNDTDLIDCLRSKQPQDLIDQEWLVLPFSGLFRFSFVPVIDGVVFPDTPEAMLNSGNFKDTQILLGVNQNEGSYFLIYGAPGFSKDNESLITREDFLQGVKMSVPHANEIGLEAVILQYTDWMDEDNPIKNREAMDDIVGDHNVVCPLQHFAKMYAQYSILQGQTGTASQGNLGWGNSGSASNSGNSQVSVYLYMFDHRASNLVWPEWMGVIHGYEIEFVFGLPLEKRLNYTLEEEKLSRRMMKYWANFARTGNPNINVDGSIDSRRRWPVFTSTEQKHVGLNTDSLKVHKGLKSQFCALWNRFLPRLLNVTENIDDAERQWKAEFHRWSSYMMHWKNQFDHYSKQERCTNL
Description for in vitro: Permeability of the compound at 25 ug/ml at pH 7.4 after 16 hrs by PAMPA

Take `O=c1oc2cc(OCCNC3CCN(Cc4ccccc4)CC3)ccc2c2c1CCCC2`: the Ratio IC50 in the data set filed under Homo sapiens is above 38.2. Further, the Papp at 16 h, 25 ug/ml in “in vitro” was 16.2 ×10⁻⁶ cm/s. Moreover, the “inhibition (INH)” value in [1] was “Not Active”; in [8] it was “Active”. In [2], the viability at 24 h, 6.25 µM amounted to 101%. The IC50 was 2.62 µM in data set [3]; 0.87 µM against Acetylcholinesterase [5]; 1.37 µM against Acetylcholinesterase [6]; 1.98 µM against Cholinesterase [7]; 0.93 µM against Cholinesterase [9]. The viability at 24 h, 12.5 µM in [4] was found to be 101%. The viability at 24 h, 50 µM in data set [10] stood at 104%; in [18], 92.6%. The inhibition entry in [11] and in data set [13] was “Active” each time. Also, the viability at 24 h, 10 µM in [12] is 97.5%. Also, the viability at 24 h, 25 µM in data set [14] amounted to 105%; in data set [19], 94.6%. Besides, the viability at 24 h, 1 µM in data set [15] was 99.6%. Also, the Activity in data set [16] came to 47%. The viability at 24 h, 5 µM in data set [17] was found to be 102%.
As to `Cc1cc(=O)oc2cc(CNC3CCN(Cc4ccccc4)CC3)ccc12`, the Ratio IC50 in the data set filed under Homo sapiens was above 51.8. Besides, the “inhibition (INH)” value in data set [1] was “Not Active”. Moreover, the figures for the IC50 (in data set [3]; against Acetylcholinesterase [5]; at Cholinesterase [9]) were 1.93 µM, 7.28 µM and 10.8 µM, respectively.
Turning to `COc1cc(=O)oc2cc(OCCNC3CCN(Cc4ccccc4)CC3)ccc12`, in the data set listed under Homo sapiens, the Ratio IC50 was above 2.98. In addition, in data set [1], the “inhibition (INH)” value is “Not Active”. Further, the results for the IC50 (in data set [3]; on Acetylcholinesterase [5]; against Cholinesterase [9]) were 33.6 µM, 6.29 µM and 5.64 µM, respectively.
With `O=c1ccc2ccc(OCCCNC3CCN(Cc4ccccc4)CC3)cc2o1`, the Ratio IC50 in the data set filed under Homo sapiens was above 7.94. In addition, the “inhibition (INH)” value in data set [1] is given as “Not Active”. Moreover, the IC50 was found to be 12.6 µM in data set [3], 11.7 µM at Acetylcholinesterase [5] and 9.86 µM against Cholinesterase [9].
Consider `Cc1cc(=O)oc2cc(CNCCC3CCN(Cc4ccccc4)CC3)ccc12`, for which, in the data set listed under Homo sapiens, the Ratio IC50 is above 2.47. Also, the “inhibition (INH)” value in data set [1] is recorded as “Not Active”. The IC50 in [3] came to 40.5 µM; against Acetylcholinesterase [5] it was 0.91 µM; against Acetylcholinesterase [6] it was 0.067 µM; against Cholinesterase [7], 3.45 µM; against Cholinesterase [9], 0.96 µM.
Turning to `Cc1cc2ccc(OCCNC3CCN(Cc4ccccc4)CC3)cc2oc1=O`, in the data set listed under Homo sapiens, the Ratio IC50 is above 42. The “inhibition (INH)” value in data set [1] was “Not Active”. Moreover, the figures for the IC50 (in data set [3]; on Acetylcholinesterase [5]; against Cholinesterase [9]) were 2.38 µM, 6.03 µM and 7.53 µM, respectively.
On to `CCOc1cc(=O)oc2cc(OCCNC3CCN(Cc4ccccc4)CC3)ccc12`, for which the Ratio IC50 in the data set filed under Homo sapiens was above 3.13. The “inhibition (INH)” value in data set [1] is on record as “Not Active”. In addition, the figures for the IC50 (in data set [3]; against Acetylcholinesterase [5]; on Cholinesterase [9]) were 31.9 µM, 6.34 µM and 6.95 µM, respectively.
In the same order, the values of `O=c1cc(C(F)(F)F)c2ccc(OCCNC3CCN(Cc4ccccc4)CC3)cc2o1` are above 3.51, “Not Active”, 28.5 µM, 9.18 µM and 10.2 µM.
Turning to `Cc1c(C)c2ccc(OCCNC3CCN(Cc4ccccc4)CC3)cc2oc1=O`, in the data set listed under Homo sapiens, the Ratio IC50 was above 4.27. For the same molecule, the “inhibition (INH)” value in data set [1] is recorded as “Not Active”. Moreover, the IC50 in [3] is 23.4 µM; at Acetylcholinesterase [5] it was 1.48 µM; on Acetylcholinesterase [6] it was 1.69 µM; at Cholinesterase [7], 2.67 µM; at Cholinesterase [9], 1.67 µM.
Regarding `Cc1c(Cl)c(=O)oc2cc(OCCNC3CCN(Cc4ccccc4)CC3)ccc12`, the Ratio IC50 in the data set filed under Homo sapiens was above 6.8. Further, the “inhibition (INH)” value in data set [1] is “Not Active”. The IC50 in data set [3] stood at 14.7 µM; on Acetylcholinesterase [5] it was 1.58 µM; on Acetylcholinesterase [6] it was 1.82 µM; on Cholinesterase [7], 1.68 µM; against Cholinesterase [9] it was 1.42 µM.
For `O=c1ccc2ccc(OCCNC3CCN(Cc4ccccc4)CC3)cc2o1`, the Ratio IC50 in the data set listed under Homo sapiens is above 11.9. Moreover, in [1], the “inhibition (INH)” value was “Not Active”. Moreover, the results for the IC50 (in data set [3]; against Acetylcholinesterase [5]; at Cholinesterase [9]) were 8.39 µM, 4.42 µM and 5.34 µM, respectively.
As for `O=c1cc(-c2ccccc2)c2ccc(OCCNC3CCN(Cc4ccccc4)CC3)cc2o1`, in the data set listed under Homo sapiens, the Ratio IC50 is above 2.19. In addition, the “inhibition (INH)” value in data set [1] was “Not Active”. In addition, the results for the IC50 (in [3]; against Acetylcholinesterase [5]; on Cholinesterase [9]) were 45.6 µM, 9.65 µM and 8.93 µM, respectively.
`O=c1cc(Cl)c2ccc(OCCNC3CCN(Cc4ccccc4)CC3)cc2o1`: the Ratio IC50 in the data set filed under Homo sapiens is above 2.95. In addition, the “inhibition (INH)” value in data set [1] was “Not Active”. The IC50 was 33.9 µM in data set [3]; 1.5 µM at Acetylcholinesterase [5]; 2.04 µM on Acetylcholinesterase [6]; 2.93 µM against Cholinesterase [7]; 1.48 µM against Cholinesterase [9].
On to `O=c1ccc2ccc(OCCNCCC3CCN(Cc4ccccc4)CC3)cc2o1`, for which the Ratio IC50 in the data set listed under Homo sapiens was above 3.29. In data set [1], the “inhibition (INH)” value is listed as “Not Active”. The values for the IC50 (in data set [3]; on Acetylcholinesterase [5]; against Cholinesterase [9]) were 30.4 µM, 8.91 µM and 9.79 µM, respectively.
In the same order, the values of `Cc1cc(=O)oc2cc(OCCNC3CCN(Cc4ccccc4)CC3)ccc12` are above 36.4, “Not Active”, 2.75 µM, 5.62 µM and 4.38 µM.
